From PubChem BioAssay (NCI)
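The compound was tested at five concentrations on cells cultured in 96-well plates, with a 48-hour exposure period. At the GI50, growth is halved. TGI: total growth inhibition.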

Experiments:
Assay in all cases: NCI anticancer screen, dose series, 48 h
[1] = system: LOX IMVI melanoma
[2] = system: K-562 leukemia
[3] = system: SR leukemia
[4] = system: OVCAR-4 ovarian
[5] = system: HL-60(TB) leukemia
[6] = system: OVCAR-8 ovarian
[7] = system: MOLT-4 leukemia
[8] = system: HCT-15 colon
[9] = system: UO-31 renal
[10] = system: 786-0 renal
[11] = system: MALME-3M melanoma
[12] = system: A498 renal
[13] = system: SK-MEL-2 melanoma

| Structure (SMILES) | TGI [1] [µM] | TGI [2] [µM] | TGI [3] [µM] | TGI [4] [µM] | TGI [5] [µM] | TGI [6] [µM] | TGI [7] [µM] | TGI [8] [µM] | TGI [9] [µM] | TGI [10] [µM] | GI50 [3] [µM] | GI50 [4] [µM] | GI50 [11] [µM] | GI50 [5] [µM] | TGI [12] [µM] | TGI [13] [µM] | TGI [11] [µM] |
| --- | --- | --- | --- | --- | --- | --- | --- | --- | --- | --- | --- | --- | --- | --- | --- | --- | --- |
| CCc1ccc(COC(=O)C2=C(C)NC(C)=C(C(=O)OCc3ccc(CC)cn3)C2C2=COCCO2)nc1 | 29.1 | 53.7 | > 100 | 66.9 | 66.7 | > 100 | 33.6 | 71.4 | 60.4 | 69.4 |  |  |  |  |  |  |  |
| COc1cc2c(c(OC)c1OC)-c1ccc(SC)c(=O)cc1[C@@H](O)CC2 | > 100 | > 100 |  | > 100 |  |  | > 100 |  | > 100 | > 100 | 0.0667 | > 100 | 0.028 | 6.13 |  |  |  |
| CCCSc1ccc2[nH]c(N3C(=O)/C(=C/c4ccc(SC)cc4)N=C3c3ccccc3)cc2c1 | > 50 | 5.43 |  | > 50 | 24.8 | > 50 |  | > 50 | > 50 | > 50 |  |  |  |  | > 50 | > 38.5 | > 50 |
| CC(Nc1ccc(Cl)c(Cl)c1)c1ccncc1 (stereo unspecified) | 40 | > 100 |  | > 100 |  | 76.2 | > 100 | > 100 | 31.1 | 60.5 |  |  |  |  | 61 | 55.6 | > 100 |
| COc1c(C(=O)NCCN(CCNC(=O)c2cccc(-c3cccc(C(=O)N(C)C)c3OC)c2OC)CCNC(=O)c2cccc(-c3cccc(C(=O)N(C)C)c3OC)c2OC)cccc1-c1cccc(C(=O)N(C)C)c1OC | 33.7 | 65 | 71.5 | 84 | 69.5 | > 100 | 72.4 | > 100 | > 100 | > 100 |  |  |  |  |  |  | 39.6 |
| CCCCc1ccc(Nc2nc(OC)c3ncn(C4CC(O)C(CO)O4)c3n2)cc1 (stereo unspecified) | 31.4 | > 100 |  | 35.9 | 4.16 | 35.2 | 36.7 | 34.3 | 35.7 | 30.9 |  |  |  |  | 35.3 | 47.5 | 42.7 |
| CCCc1cc(COC)c(C#N)c(=O)[nH]1 | > 100 | > 100 |  | > 100 | > 100 | > 100 | > 100 | > 100 | > 100 | > 100 |  |  |  |  | > 100 |  | > 100 |
| Cn1c2ccccc2c(=O)c2c(O)cc3c(c21)C=CC(C)(C)O3 | > 25 | > 25 |  | > 25 | > 20.1 |  |  | > 25 | > 25 |  |  |  |  |  | > 25 | > 25 | > 25 |
| [B-][P+](CC[P+]1([B-])[C@@H](C)[C@@H](O)[C@H](O)[C@@H]1C)(c1ccccc1)c1ccccc1OC (stereo partly specified) | 8.51 | 70.8 |  | 31.7 | 54 | 31.5 | 41.7 | 33.3 | 21.7 | 60.8 |  |  |  |  | 32 | 30.2 | 24.4 |
| N[C@@H]1CCN(c2c(F)cc3c(=O)c(C(=O)O)cn4c3c2Oc2cc3c(ccc5ccccc53)cc2-4)C1 | > 63.7 | > 23.3 |  | > 100 | > 59.9 | 18.1 |  | > 100 | > 100 | > 100 |  |  |  |  | > 44.8 | > 78 | 23 |
| CSCSCC(CO)NC(=O)/C(C)=C\c1c(C)[nH]c(=O)[nH]c1=O (stereo unspecified) | > 250 | > 250 |  | > 250 | > 250 | > 250 | > 250 | > 250 | > 250 |  |  |  |  |  | > 250 | > 250 | > 250 |
| COc1cccc(/C=C2\S/C(=N/Nc3nc(C)c(C)s3)NC2=O)c1O | > 100 |  |  | > 100 | > 100 | > 100 | > 100 | > 100 | > 100 | > 100 |  |  |  |  | > 100 | > 100 |  |
| Cc1cc(=O)oc2cc(OCC(O)COC(C)C)ccc12 (stereo unspecified) | > 100 | > 100 | > 100 | > 100 | > 100 | > 100 | > 100 | > 100 | > 100 | > 100 |  |  |  |  |  |  | > 100 |
| CC(=O)NCC1OC2COC(c3ccccc3)OC2C(NC(=O)c2ccccc2)C1OC(=O)c1ccccc1 (stereo unspecified) | > 100 | > 100 |  | > 100 | > 100 | > 100 | > 100 | > 100 | > 100 | > 100 |  |  |  |  | > 100 | > 100 | > 100 |
| O=C1NN(Cc2ccccc2)C(=O)N2CCC[C@@H]12 | > 100 |  |  | > 100 | > 100 | > 100 | > 100 | > 100 |  | > 100 |  |  |  |  | > 100 | > 100 | > 100 |
| CCOC(=O)c1c(NC(=S)Nc2ccc(Cl)cc2)sc2c1CCN(C)C2 |  | > 100 |  |  | > 100 | > 100 | > 100 | > 100 | > 100 | > 100 |  |  |  |  | > 100 | > 100 |  |
